The source of these data is patent US5264589A, “Merocyanine protein error indicators” (Miles Inc., priority 1991, dated 1993).

Data set [1] is described as follows: pKa of the indicator compound. It is filed as physicochemical.
The target in a further data set is human serum albumin (Homo sapiens, UniProt P02768). The data set can be described thus: Liquid assay for human serum albumin (increase in absorbance). The conditions noted are these: albumin 100 mg/dl, 200-250 mM Na+ or K+ citrate buffer. As for the experimental part:
The utility of the merocyanine protein error indicator compounds of the present invention in a liquid assay for the determination of protein levels in a liquid test sample is illustrated in Table 7 below. […] The solution was then treated with sufficient human serum albumin to make the albumin concentration 100 mg/dl and the absorbance was measured again. The reported increase in absorbance (Δ abs) is proportional to the amount of albumin present, and is indicative of the relative sensitivity of the dye for measuring protein.

In data set [2] the target is T1, human serum albumin (HSA) (Homo sapiens, UniProt P02768).
T1 construct: purchased Miles, Inc., Elkhart, Ind; (Pentex)
The data set is described as follows: Dose response of reagent strips including SPDIB (K/S reflectance, Clinitek 200). The conditions noted are these: analytical test strips including 0.3 mM SPDIB; 50 mM potassium citrate, pH 2.5; K/S at 25 seconds; FIG. 7. As for the experimental part:
A buffered liquid sample (50 mM potassium citrate, pH 2.5) which was shown by immunoassay to be devoid of albumin, was spiked to various clinically significant levels with Pentex® human serum albumin (HSA) (Miles, Inc., Elkhart, Ind.). Using a Clinitek 200® Instrument (Miles, Inc., Elkhart, Ind.) protein measurements were made using analytical test strips including 0.3 mM SPDIB.
Resolution was quantitatively expressed in delta K/S between albumin levels, as shown FIG. 7. K/S are calculated from the formula: [formula] wherein R is the fraction of reflectance from the test device, K is a constant, and S is the light scattering coefficient of the particular reflecting medium. The above equation is a simplified form of the well-known Kubelka-Munk equation (See Gustav Kortum, "Reflectance Spectroscopy," pp. 106-11, Springer Verlas, New York (1969). K/S was determined at 25 seconds.

human serum albumin, sequence (P02768 25-609): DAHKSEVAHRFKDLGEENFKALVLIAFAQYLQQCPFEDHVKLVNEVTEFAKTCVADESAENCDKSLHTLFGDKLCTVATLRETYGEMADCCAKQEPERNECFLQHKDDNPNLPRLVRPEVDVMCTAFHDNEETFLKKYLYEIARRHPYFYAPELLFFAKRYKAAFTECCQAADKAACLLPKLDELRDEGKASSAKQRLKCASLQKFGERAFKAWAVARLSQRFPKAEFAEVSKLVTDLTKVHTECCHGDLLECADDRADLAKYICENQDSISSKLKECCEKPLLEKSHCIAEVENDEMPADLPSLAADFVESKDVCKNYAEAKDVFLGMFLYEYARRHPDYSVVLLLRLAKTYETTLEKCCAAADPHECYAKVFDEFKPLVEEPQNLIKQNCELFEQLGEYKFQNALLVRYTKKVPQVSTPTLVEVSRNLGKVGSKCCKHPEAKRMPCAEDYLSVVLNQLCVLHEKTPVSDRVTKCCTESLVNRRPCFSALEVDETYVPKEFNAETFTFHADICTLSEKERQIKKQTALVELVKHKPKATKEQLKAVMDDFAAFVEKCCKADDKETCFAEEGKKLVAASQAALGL
T1 sequence (P02768 25-609): as above

For `CC1(C)C(C=Cc2cc(Br)c(O)c(Br)c2)=[N+](CCCS(=O)(=O)[O-])c2ccccc21` [Compound A, 1-(ω-sulfopropyl)-2-(4'hydroxy-3',5'-dibromostyryl)-3,3-dimethylindoleninium betaine], in data set [1], the “COMPD. pKa” value came out at 3.59. Moreover, the “ΔABS (increase in absorbance)” value on human serum albumin (compound conc. 1.0 × 10^-5 M, assay pH 3.0, λ 522 nm) is recorded as 0.156.
In the case of `O=S(=O)([O-])CCCC[n+]1c(C=Cc2cc(I)c(O)c(I)c2)sc2ccccc21` [Compound B, 1-(ω-sulfobutyl)-2-(4'-hydroxy-3',5'-diiodostyryl)-benzothiazolium betaine], in data set [1], the “COMPD. pKa” value amounted to 4.35. In addition, the “ΔABS (increase in absorbance)” value at human serum albumin (compound conc. 2.5 × 10^-5 M, assay pH 3.5, λ 506 nm) is listed as 0.027.
For the compound `CC1(C)C(C=Cc2cc(I)c(O)c(I)c2)=[N+](CCS(=O)(=O)[O-])c2ccccc21` [Compound C, 1-(ω-sulfoethyl)-2-(4'-hydroxy-3',5'-diiodostyryl)-3,3-dimethylindoleninium betaine], in data set [1], the “COMPD. pKa” value stood at 3.65. Moreover, the “ΔABS (increase in absorbance)” value on human serum albumin (compound conc. 1.5 × 10^-5 M, assay pH 3.0, λ 543 nm) was found to be 0.255.
On to `CC1(C)C(C=Cc2cc(I)c(O)c(I)c2)=[N+](CCCS(=O)(=O)[O-])c2ccccc21` [Compound D, 1-(ω-sulfopropyl)-2-(4'-hydroxy-3'-5'-diiodostyryl)-3,3-dimethylindoleninium betaine], for which the “COMPD. pKa” value in data set [1] was determined as 3.65. In addition, at human serum albumin (compound conc. 2.0 × 10^-5 M, assay pH 3.0, λ 541 nm), the “ΔABS (increase in absorbance)” value is reported as 0.402. In data set [2], the “resolution between protein levels (delta K/S)” value was “significant resolution between protein levels” and the “response of the strip to different levels of protein” value is reported as “sensitive to a wide range of protein concentrations”.
In the case of `CC1(C)C(C=Cc2cc(I)c(O)c(I)c2)=[N+](CCCCS(=O)(=O)[O-])c2ccccc21` [Compound E, 1-(ω-sulfobutyl)-2-(4'-hydroxy-3',5'-diiodostyryl)-3,3-dimethylindoleninium betaine], the “COMPD. pKa” value in data set [1] was 3.52. For the same compound, the “ΔABS (increase in absorbance)” value at human serum albumin (compound conc. 1.8 × 10^-5 M, assay pH 3.0, λ 535 nm) is recorded as 0.322.
